Legend:
[1] = Tissue distribution study (dorsal root ganglia) in SD rats; type: in vivo; settings: male, rat, oral administration 10 mg/kg
Description: Experimental Example 5: Tissue distribution study of compounds in SD rats
Experimental animals: SD rats, male, 6-8 weeks old.
Compound preparation: 5% (final preparation volume) of DMSO was added to dissolve the test compound, and then 10% (final preparation volume) of Cremophor EL and 85% Saline were sequentially added.
Experimental design: The test compounds were administered to SD rats as a single dose via oral administration (10 mg/kg; n = 3, 3 time points). Blood samples were collected at 0.5 h, 2 h, and 6 h after oral administration, followed by sacrifice of the animals. Dorsal root ganglia were collected, rinsed with ice-cold normal saline to remove residual blood, blotted dry with absorbent paper, and stored at -70 °C for analysis.
Sample test: The concentrations of the designated compound drugs in plasma and tissues were determined by the LC-MS/MS method.

Nav1.8 channels = molecular target: T1, Nav1.8 channels (Homo sapiens, UniProt Q9Y5Y9); assay: Manual patch-clamp, current of stably overexpressed Nav1.8 channels (resting state voltage program); type: cell-based
T1 construct: expressed in transfected cells
T1 sequence (Q9Y5Y9 whole entry): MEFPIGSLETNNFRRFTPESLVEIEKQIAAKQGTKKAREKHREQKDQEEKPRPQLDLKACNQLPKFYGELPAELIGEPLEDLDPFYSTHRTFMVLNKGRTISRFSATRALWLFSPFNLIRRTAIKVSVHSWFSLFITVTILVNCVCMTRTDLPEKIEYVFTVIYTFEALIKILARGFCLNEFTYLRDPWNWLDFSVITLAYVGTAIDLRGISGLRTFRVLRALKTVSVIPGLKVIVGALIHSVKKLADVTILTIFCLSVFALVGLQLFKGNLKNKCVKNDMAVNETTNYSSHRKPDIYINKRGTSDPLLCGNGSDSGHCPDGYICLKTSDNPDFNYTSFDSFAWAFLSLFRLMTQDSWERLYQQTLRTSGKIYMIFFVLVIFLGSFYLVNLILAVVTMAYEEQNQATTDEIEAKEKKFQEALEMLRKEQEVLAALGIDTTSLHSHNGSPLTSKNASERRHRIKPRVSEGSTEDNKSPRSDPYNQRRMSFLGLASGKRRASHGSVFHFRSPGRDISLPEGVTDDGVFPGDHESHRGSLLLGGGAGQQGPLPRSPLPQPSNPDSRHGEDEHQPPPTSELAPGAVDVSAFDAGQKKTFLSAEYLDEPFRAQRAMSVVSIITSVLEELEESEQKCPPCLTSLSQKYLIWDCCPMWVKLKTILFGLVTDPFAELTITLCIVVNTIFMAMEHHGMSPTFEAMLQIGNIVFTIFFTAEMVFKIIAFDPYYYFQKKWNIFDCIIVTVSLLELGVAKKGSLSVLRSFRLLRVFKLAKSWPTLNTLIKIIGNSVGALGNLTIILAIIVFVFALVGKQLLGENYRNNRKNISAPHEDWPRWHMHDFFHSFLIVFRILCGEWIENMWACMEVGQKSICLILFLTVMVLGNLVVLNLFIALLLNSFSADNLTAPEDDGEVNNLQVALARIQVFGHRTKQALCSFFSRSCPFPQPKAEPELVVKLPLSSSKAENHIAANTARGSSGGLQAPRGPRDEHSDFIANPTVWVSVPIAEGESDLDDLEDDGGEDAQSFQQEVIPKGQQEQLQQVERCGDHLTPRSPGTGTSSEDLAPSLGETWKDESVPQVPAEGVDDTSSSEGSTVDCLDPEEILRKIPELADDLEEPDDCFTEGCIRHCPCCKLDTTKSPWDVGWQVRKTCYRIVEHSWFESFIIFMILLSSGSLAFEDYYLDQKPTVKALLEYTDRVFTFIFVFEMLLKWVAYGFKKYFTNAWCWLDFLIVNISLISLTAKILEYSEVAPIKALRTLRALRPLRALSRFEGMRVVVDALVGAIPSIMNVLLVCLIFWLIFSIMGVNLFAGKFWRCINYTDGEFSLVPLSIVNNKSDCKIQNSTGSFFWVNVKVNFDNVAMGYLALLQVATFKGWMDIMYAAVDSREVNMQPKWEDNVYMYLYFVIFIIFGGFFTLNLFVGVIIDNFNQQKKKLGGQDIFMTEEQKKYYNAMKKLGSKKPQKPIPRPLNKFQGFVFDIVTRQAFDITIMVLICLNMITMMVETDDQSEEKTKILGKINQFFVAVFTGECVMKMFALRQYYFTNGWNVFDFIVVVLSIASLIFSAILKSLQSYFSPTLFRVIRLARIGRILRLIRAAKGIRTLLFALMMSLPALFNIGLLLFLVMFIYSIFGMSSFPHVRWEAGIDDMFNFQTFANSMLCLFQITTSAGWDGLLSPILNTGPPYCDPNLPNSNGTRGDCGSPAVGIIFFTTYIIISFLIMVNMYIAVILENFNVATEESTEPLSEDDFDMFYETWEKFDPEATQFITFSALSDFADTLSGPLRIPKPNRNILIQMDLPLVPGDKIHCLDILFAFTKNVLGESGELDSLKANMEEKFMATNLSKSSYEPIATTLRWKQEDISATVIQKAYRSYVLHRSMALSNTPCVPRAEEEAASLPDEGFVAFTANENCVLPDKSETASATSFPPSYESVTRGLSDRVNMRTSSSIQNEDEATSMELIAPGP
Method in brief: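 Whole-cell manual patch clamp on cells stably overexpressing Nav1.8, held at -120 mV and stepped to 0 mV for 50 ms every 20 s (resting-state protocol). Compounds were perfused in ascending concentrations, each for 5 min or until stable; block of peak current was calculated at steady state.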

incision pain model = assay: Incision pain model in ICR mice, Von Frey test; type: in vivo; settings: 50 mg/kg single dose, Mean + SEM, n = 10

SMILES: COc1c(C2CC(C)(C(F)(F)F)SC2C(=O)Nc2ccnc(C(N)=O)c2)ccc(F)c1F (single isomer, unassigned) [Compound 139-A, 4-(3-(3,4-difluoro-2-methoxyphenyl)-5-methyl-5-(trifluoromethyl)tetrahydrothiophene-2-carboxamido)picolinamide]
- concentration at 0.5 h ([1]; Time 0.5 h): 1070 ng/g
- concentration at 2 h ([1]; Time 2 h): 973 ng/g
- concentration at 6 h ([1]; Time 6 h): 549 ng/g
- IC50 (Nav1.8 channels): 0.06 nM
- Inhibition rate (%) (Nav1.8 channels; concentration of 10 nM, 0.01 µM): 95.31%
- PWT 50% value (g) AUC0-8h (incision pain model): 5.45 ± 1.62 g·h

Reference: patent publication EP4813993A1, “COMPOUND, PREPARATION METHOD THEREFOR, AND USE THEREOF” (Sichuan Kelun Pharmaceutical Research Institute Co., Ltd., priority 2023, dated 2025)
